The record followed here is US12568972B2, “Pyridazinol compounds and derivatives, preparation methods, herbicidal compositions and applications thereof” (Qingdao Kingagroot Chemical Compound Co., Ltd., priority 2018, dated 2026).

Broadly, the inhibition is the drop in the measured response relative to a control, in per cent.

Assay in all cases: Post-emergence test, weed control effect
Holding throughout (format): in vivo

The subject of one experiment is Chenopodiaceae. The following applies: after 3 weeks. In short, it runs like this: (§1)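 Scores use a 0 (no effect) to 10 (dead) scale of fresh-weight inhibition, assessed 3 weeks after spraying. Treatment was at the 2-3 leaf stage, 2-3 weeks post-sowing, using acetone/Tween-80/water solutions with 80% vegetable oil methyl ester synergist at 1500 g/ha.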
The next experiment has as its system Echinochloa crus-galli. Conditions: 504 h, after 3 weeks, fresh weight inhibition, read-out: activity level of harmful plant destruction (growth inhibition rate), Echinochloa crus-galli. In short, it runs like this:
as §1

For another experiment, the system named is Galium aparine. Conditions: 504 h, after 3 weeks, fresh weight inhibition, read-out: activity level of harmful plant destruction (growth inhibition rate), Galium aparine. In short, it runs like this: as §1
A further experiment has as its system Amaranthus retroflexus. The following applies: after 3 weeks. The method in brief:
as §1

Another experiment relates to Veronica polita. The following applies: after 3 weeks. The method in brief: as §1
The subject of the next experiment is Setaria viridis. The following applies: 504 h, after 3 weeks, fresh weight inhibition, read-out: activity level of harmful plant destruction (growth inhibition rate), Setaria viridis. The method in brief:
as §1

For a further experiment, the system named is Rorippa indica. Conditions: after 3 weeks. In short, it runs like this: as §1
Where [1] appears, read: 504 h, fresh weight inhibition, read-out: activity level of harmful plant destruction (growth inhibition rate), Chenopodiaceae.
Where [2] appears, read: Veronica polita, 504 h, fresh weight inhibition, read-out: activity level of harmful plant destruction (growth inhibition rate), Veronica polita.
[3] abbreviates: Rorippa indica, 504 h, fresh weight inhibition, read-out: activity level of harmful plant destruction (growth inhibition rate), Rorippa indica.

For the molecule `Oc1cc(C(F)(F)F)nnc1-c1ccc(F)cc1` [Compound 32], the inhibition at 300 g/ha in the experiment on Chenopodiaceae (setting [1]), with Echinochloa crus-galli, in the experiment with Galium aparine, with Veronica polita (setting [2]), with Setaria viridis and in the experiment with Rorippa indica (setting [3]) was 100% in each case. Further, the “weed control effect (activity level), Chenopodiaceae” value (shortened to “weed control effect … Chenopodiaceae”) in the experiment on Chenopodiaceae (dose 1000 g/ha) is recorded as 10. Besides, in the experiment on Amaranthus retroflexus (dose 1000 g/ha), the “weed control effect (activity level), Amaranthus retroflexus” value is 10. The “weed control effect (activity level), Veronica polita” value (shortened to “weed control effect … Veronica polita”) in the experiment with Veronica polita (dose 1000 g/ha) was determined as 10. For the same molecule, the “weed control effect (activity level), Rorippa indica” value (“weed control effect … Rorippa indica” below) in the experiment on Rorippa indica (dose 1000 g/ha) was found to be 10.
As for `Oc1cc(C(F)(F)F)nnc1-c1cc(F)cc(F)c1` [Compound 35], the inhibition at 300 g/ha was 100% in the experiment on Chenopodiaceae (setting [1]); 100% with Echinochloa crus-galli; 90 to 100% in the experiment with Galium aparine; 100% with Veronica polita (setting [2]); 100% in the experiment on Setaria viridis; 100% in the experiment on Rorippa indica (setting [3]). The “weed control effect … Chenopodiaceae” value in the experiment with Chenopodiaceae (dose 1000 g/ha) is 10. Moreover, in the experiment with Amaranthus retroflexus (dose 1000 g/ha), the “weed control effect (activity level), Amaranthus retroflexus” value is reported as 10. Further, the “weed control effect … Veronica polita” value with Veronica polita (dose 1000 g/ha) was 10. Besides, the “weed control effect … Rorippa indica” value in the experiment with Rorippa indica (dose 1000 g/ha) is 10.
`Oc1cc(C(F)(F)F)nnc1-c1ccc(C(F)(F)F)cc1F` [Compound 51]: the inhibition at 300 g/ha is 100% with Chenopodiaceae (setting [1]); 60 to 70% in the experiment with Echinochloa crus-galli; 80 to 90% in the experiment on Galium aparine; 90 to 100% with Veronica polita (setting [2]); 90 to 100% in the experiment with Setaria viridis; 100% in the experiment on Rorippa indica (setting [3]). The “weed control effect … Chenopodiaceae” value in the experiment on Chenopodiaceae (dose 1000 g/ha) is on record as 10. In the experiment on Amaranthus retroflexus (dose 1000 g/ha), the “weed control effect (activity level), Amaranthus retroflexus” value is listed as 10. Also, in the experiment on Veronica polita (dose 1000 g/ha), the “weed control effect … Veronica polita” value is reported as 10. In addition, the “weed control effect … Rorippa indica” value with Rorippa indica (dose 1000 g/ha) is given as 10.
As to `Oc1cc(C(F)(F)F)nnc1-c1cccnc1` [Compound 202], the inhibition at 300 g/ha is 100% in the experiment with Chenopodiaceae (setting [1]); 70 to 80% with Echinochloa crus-galli; 100% in the experiment on Galium aparine; 80 to 90% in the experiment with Veronica polita (setting [2]); 100% in the experiment on Setaria viridis; 100% with Rorippa indica (setting [3]). The “weed control effect … Chenopodiaceae” value in the experiment on Chenopodiaceae (dose 2000 g/ha) is 10. Further, the “weed control effect (activity level), Amaranthus retroflexus” value in the experiment with Amaranthus retroflexus (dose 2000 g/ha) is reported as 10. In the experiment on Veronica polita (dose 2000 g/ha), the “weed control effect … Veronica polita” value is listed as 10. Besides, in the experiment with Rorippa indica (dose 2000 g/ha), the “weed control effect … Rorippa indica” value is 10.
Turning to `Oc1cc(C(F)(F)F)nnc1-c1ccnc(F)c1` [Compound 206], the inhibition at 300 g/ha in the experiment with Chenopodiaceae (setting [1]), with Echinochloa crus-galli, with Galium aparine, in the experiment with Veronica polita (setting [2]), with Setaria viridis and with Rorippa indica (setting [3]) was 100% throughout. Moreover, the “weed control effect … Chenopodiaceae” value in the experiment with Chenopodiaceae (dose 2000 g/ha) stood at 10. Further, the “weed control effect (activity level), Amaranthus retroflexus” value with Amaranthus retroflexus (dose 2000 g/ha) is given as 10. In the experiment with Veronica polita (dose 2000 g/ha), the “weed control effect … Veronica polita” value was 10. In the experiment on Rorippa indica (dose 2000 g/ha), the “weed control effect … Rorippa indica” value was 10.
Regarding `Oc1cc(C(F)(F)F)nnc1-c1ccc(F)nc1` [Compound 207], the inhibition at 300 g/ha with Chenopodiaceae (setting [1]), with Echinochloa crus-galli, in the experiment with Galium aparine, with Veronica polita (setting [2]), with Setaria viridis and in the experiment on Rorippa indica (setting [3]) was 100% throughout. The “weed control effect … Chenopodiaceae” value with Chenopodiaceae (dose 2000 g/ha) was found to be 10. Besides, the “weed control effect (activity level), Amaranthus retroflexus” value with Amaranthus retroflexus (dose 2000 g/ha) is 10. The “weed control effect … Veronica polita” value in the experiment on Veronica polita (dose 2000 g/ha) turned out to be 10. In the experiment with Rorippa indica (dose 2000 g/ha), the “weed control effect … Rorippa indica” value is 10.
As for `Oc1cc(C(F)(F)F)nnc1-c1ccc(F)nc1F` [Compound 220], the inhibition at 300 g/ha in the experiment with Chenopodiaceae (setting [1]), with Echinochloa crus-galli, in the experiment on Galium aparine, with Veronica polita (setting [2]), in the experiment on Setaria viridis and in the experiment with Rorippa indica (setting [3]) was 100% each time. Moreover, the “weed control effect … Chenopodiaceae” value in the experiment with Chenopodiaceae (dose 2000 g/ha) amounted to 10. The “weed control effect (activity level), Amaranthus retroflexus” value with Amaranthus retroflexus (dose 2000 g/ha) is listed as 10. The “weed control effect … Veronica polita” value with Veronica polita (dose 2000 g/ha) is given as 10. For the same molecule, the “weed control effect … Rorippa indica” value in the experiment with Rorippa indica (dose 2000 g/ha) is recorded as 10.
For `Oc1cc(C(F)(F)F)nnc1-c1cccnc1F` [Compound 733], the inhibition at 300 g/ha with Chenopodiaceae (setting [1]), in the experiment on Echinochloa crus-galli, in the experiment on Galium aparine, with Veronica polita (setting [2]), in the experiment on Setaria viridis and with Rorippa indica (setting [3]) was 100% in each case. In addition, the “weed control effect … Chenopodiaceae” value in the experiment on Chenopodiaceae (dose 1000 g/ha) amounted to 10. In the experiment on Amaranthus retroflexus (dose 1000 g/ha), the “weed control effect (activity level), Amaranthus retroflexus” value is given as 10. Further, the “weed control effect … Veronica polita” value with Veronica polita (dose 1000 g/ha) turned out to be 10. The “weed control effect … Rorippa indica” value with Rorippa indica (dose 1000 g/ha) is recorded as 10.
In the case of `Oc1cc(C(F)(F)F)nnc1-c1ccc(Cl)cc1` [Compound 739], the inhibition at 300 g/ha with Chenopodiaceae (setting [1]) is 100%; with Echinochloa crus-galli, 100%; with Galium aparine, 80 to 90%; with Veronica polita (setting [2]) it was 100%; with Setaria viridis, 100%; in the experiment with Rorippa indica (setting [3]), 100%. Also, the “weed control effect … Chenopodiaceae” value with Chenopodiaceae (Dose 3000 g/ha) came to 10. In the experiment on Amaranthus retroflexus (Dose 3000 g/ha), the “weed control effect (activity level), Amaranthus retroflexus” value worked out at 10. Moreover, in the experiment with Veronica polita (Dose 3000 g/ha), the “weed control effect … Veronica polita” value came out at 10. Also, the “weed control effect … Rorippa indica” value in the experiment on Rorippa indica (Dose 3000 g/ha) stood at 10.
For `Oc1cc(C(F)(F)F)nnc1-c1ccc(F)c(Cl)c1` [Compound 740], the inhibition at 300 g/ha in the experiment with Chenopodiaceae (setting [1]), with Echinochloa crus-galli, with Galium aparine, with Veronica polita (setting [2]), in the experiment on Setaria viridis and in the experiment on Rorippa indica (setting [3]) was 100% throughout. Further, the “weed control effect … Chenopodiaceae” value in the experiment with Chenopodiaceae (Dose 3000 g/ha) amounted to 10. Also, the “weed control effect (activity level), Amaranthus retroflexus” value in the experiment on Amaranthus retroflexus (Dose 3000 g/ha) is 10. For the same molecule, in the experiment with Veronica polita (Dose 3000 g/ha), the “weed control effect … Veronica polita” value is listed as 10. Besides, the “weed control effect … Rorippa indica” value in the experiment on Rorippa indica (Dose 3000 g/ha) was 10.
With `Oc1cc(C(F)(F)F)nnc1-c1ccc(F)c(F)c1` [Compound 744], the inhibition at 300 g/ha in the experiment with Chenopodiaceae (setting [1]), with Echinochloa crus-galli, in the experiment on Galium aparine, in the experiment on Veronica polita (setting [2]), with Setaria viridis and in the experiment with Rorippa indica (setting [3]) was 100% in each case. In addition, in the experiment with Chenopodiaceae (Dose 3000 g/ha), the “weed control effect … Chenopodiaceae” value worked out at 10. In addition, the “weed control effect (activity level), Amaranthus retroflexus” value in the experiment with Amaranthus retroflexus (Dose 3000 g/ha) was determined as 10. Further, in the experiment with Veronica polita (Dose 3000 g/ha), the “weed control effect … Veronica polita” value turned out to be 10. Besides, the “weed control effect … Rorippa indica” value in the experiment on Rorippa indica (Dose 3000 g/ha) is 10.
As for `Cc1cc(-c2nnc(C(F)(F)F)cc2O)n(C)n1` [Compound 779], the inhibition at 300 g/ha in the experiment with Chenopodiaceae (setting [1]), in the experiment on Echinochloa crus-galli, with Galium aparine, with Veronica polita (setting [2]), in the experiment on Setaria viridis and in the experiment on Rorippa indica (setting [3]) was 100% each time. Moreover, the “weed control effect … Chenopodiaceae” value in the experiment with Chenopodiaceae (Dose 3000 g/ha) was found to be 10. Also, the “weed control effect (activity level), Amaranthus retroflexus” value in the experiment with Amaranthus retroflexus (Dose 3000 g/ha) came to 10. Moreover, in the experiment on Veronica polita (Dose 3000 g/ha), the “weed control effect … Veronica polita” value is recorded as 10. The “weed control effect … Rorippa indica” value with Rorippa indica (Dose 3000 g/ha) turned out to be 10.
`Oc1cc(C(F)(F)F)nnc1-c1cnn(C(F)F)c1` [Compound 844]: the inhibition at 150 g/ha in the experiment with Chenopodiaceae (504 h, Dose 150 g/ha, fresh weight inhibition, read-out: activity level of harmful plant destruction (growth inhibition rate), Chenopodiaceae) was found to be 100%; in the experiment with Echinochloa crus-galli (Dose 150 g/ha) it was 100%; with Galium aparine (Dose 150 g/ha), 100%; with Veronica polita (Veronica polita, 504 h, Dose 150 g/ha, fresh weight inhibition, read-out: activity level of harmful plant destruction (growth inhibition rate), Veronica polita) it was 100%; with Setaria viridis (Dose 150 g/ha), 100%; with Rorippa indica (Rorippa indica, 504 h, Dose 150 g/ha, fresh weight inhibition, read-out: activity level of harmful plant destruction (growth inhibition rate), Rorippa indica) it was 100%. The “weed control effect … Chenopodiaceae” value with Chenopodiaceae (dose 2000 g/ha) turned out to be 10. In addition, the “weed control effect (activity level), Amaranthus retroflexus” value in the experiment on Amaranthus retroflexus (dose 2000 g/ha) came out at 10. The “weed control effect … Veronica polita” value with Veronica polita (dose 2000 g/ha) came to 10. Further, the “weed control effect … Rorippa indica” value in the experiment with Rorippa indica (dose 2000 g/ha) was 10.
With `Oc1cc(C(F)(F)F)nnc1-c1cnc(F)c(Cl)c1` [Compound 1000], the inhibition at 300 g/ha in the experiment with Chenopodiaceae (setting [1]), with Echinochloa crus-galli, in the experiment with Galium aparine, in the experiment with Veronica polita (setting [2]), in the experiment with Setaria viridis and in the experiment with Rorippa indica (setting [3]) was 100% each time. For the same molecule, the “weed control effect … Chenopodiaceae” value with Chenopodiaceae (Dose 3000 g/ha) was found to be 10. Moreover, in the experiment with Amaranthus retroflexus (Dose 3000 g/ha), the “weed control effect (activity level), Amaranthus retroflexus” value amounted to 10. Further, the “weed control effect … Veronica polita” value in the experiment on Veronica polita (Dose 3000 g/ha) is reported as 10. In addition, the “weed control effect … Rorippa indica” value in the experiment with Rorippa indica (Dose 3000 g/ha) came to 10.
